Measurements published in ChEMBL document CHEMBL4828735, “Discovery of N-((3S,4S)-4-(3,4-Difluorophenyl)piperidin-3-yl)-2-fluoro-4-(1-methyl-1H-pyrazol-5-yl)benzamide (Hu7691), a Potent and Selective Akt Inhibitor That Enables Decrease of Cutaneous Toxicity” (J Med Chem, 2021).
The source made the active and inactive calls. The calls are words filed in the database; no cut-off is given here.

Columns and labels:
[1] = system: HaCaT; assay: Induction of apoptosis in human HaCaT cells transfected with shAKT3 assessed as late apoptotic cells at 9 uM by flow cytometry analysis (reference value: 17.55%); assay type: functional
[2] = system: HaCaT; assay: Induction of apoptosis in human HaCaT cells transfected with shAKT1 assessed as early apoptotic cells at 9 uM by flow cytometry analysis (reference value: 0.54%); assay type: functional
[3] = system: 786-0; assay: Antitumor activity against human 786-0 cells xenografted in dosed BALB/c nude mouse assessed as tumor growth inhibition at 50 mg/kg, ig administered once daily for 22 days; assay type: functional; details: 786-0, po, 528 h, time 22 day, read-out: TGI
[4] = system: HaCaT; assay: Induction of apoptosis in human HaCaT cells transfected with shAKT1 assessed as viable cells at 9 uM by flow cytometry analysis (reference value: 77.12%); assay type: functional; details: read-out: Activity
[5] = system: NCI-H1975; assay: Antiproliferative activity against human NCI-H1975 cells assessed as inhibition of cell growth incubated for 72 hrs by SRB method; assay type: functional, cell-based; details: NCI-H1975, 72 h
[6] = system: A549; assay: Antiproliferative activity against human A549 cells assessed as inhibition of cell growth incubated for 72 hrs by SRB method; assay type: functional, cell-based; details: A549, 72 h
[7] = system: 786-0; assay: Antiproliferative activity against human 786-0 cells assessed as inhibition of cell growth incubated for 72 hrs by SRB method; assay type: functional, cell-based; details: 786-0, 72 h
[8] = system: KHOS/NP; assay: Antiproliferative activity against human KHOS cells assessed as inhibition of cell growth incubated for 72 hrs by SRB method; assay type: functional, cell-based
[9] = system: HaCaT; assay: Induction of apoptosis in human HaCaT cells assessed as viable cells at 9 uM by flow cytometry analysis (reference value: 79.16%); assay type: functional; details: read-out: Activity
[10] = system: HaCaT; assay: Induction of apoptosis in human HaCaT cells transfected with shAKT2 assessed as late apoptotic cells at 9 uM by flow cytometry analysis (reference value: 16.77%); assay type: functional
[11] = system: HaCaT; assay: Induction of apoptosis in human HaCaT cells transfected with shAKT2 assessed as viable cells at 9 uM by flow cytometry analysis (reference value: 79.95%); assay type: functional; details: read-out: Activity
[12] = system: Bel-7402; assay: Antiproliferative activity against human Bel-7402 cells assessed as inhibition of cell growth incubated for 72 hrs by SRB method; assay type: functional, cell-based; details: Bel-7402, 72 h
[13] = system: U-87 MG; assay: Antiproliferative activity against human U-87MG cells assessed as inhibition of cell growth incubated for 72 hrs by SRB method; assay type: functional, cell-based, U-87MG ATCC
[14] = system: KHOS/NP; assay: Antitumor activity against human KHOS cells xenografted in dosed BALB/c nude mouse assessed as tumor growth inhibition at 50 mg/kg, ig administered once daily for 22 days; assay type: functional; details: po, 528 h, time 22 day, read-out: TGI
[15] = system: HaCaT; assay: Induction of apoptosis in human HaCaT cells transfected with shAKT3 assessed as early apoptotic cells at 9 uM by flow cytometry analysis (reference value: 0.44%); assay type: functional
[16] = system: HaCaT; assay: Induction of apoptosis in human HaCaT cells assessed as necrotic cells at 9 uM by flow cytometry analysis (reference value: 3.17%); assay type: functional
[17] = system: HaCaT; assay: Induction of apoptosis in human HaCaT cells transfected with shAKT1 assessed as late apoptotic cells at 9 uM by flow cytometry analysis (reference value: 18.52%); assay type: functional
[18] = system: HaCaT; assay: Induction of apoptosis in human HaCaT cells transfected with shAKT3 assessed as necrotic cells at 9 uM by flow cytometry analysis (reference value: 3.84%); assay type: functional
[19] = system: OVCAR-8; assay: Antiproliferative activity against human OVCAR-8 cells assessed as inhibition of cell growth incubated for 72 hrs by SRB method; assay type: functional, cell-based; details: OVCAR-8, 72 h
[20] = system: SK-OV-3; assay: Antiproliferative activity against human SK-OV-3 cells assessed as inhibition of cell growth incubated for 72 hrs by SRB method; assay type: functional, cell-based; details: SK-OV-3, 72 h
[21] = system: HaCaT; assay: Induction of apoptosis in human HaCaT cells transfected with shAKT3 assessed as viable cells at 9 uM by flow cytometry analysis (reference value: 78.17%); assay type: functional; details: read-out: Activity
[22] = system: MDA-MB-231; assay: Antiproliferative activity against human MDA-MB-231 cells assessed as inhibition of cell growth incubated for 72 hrs by SRB method; assay type: functional, cell-based; details: MDA-MB-231, 72 h
[23] = system: HT-29; assay: Antiproliferative activity against human HT-29 cells assessed as inhibition of cell growth incubated for 72 hrs by SRB method; assay type: functional, cell-based; details: HT-29, 72 h
[24] = system: U-251; assay: Antiproliferative activity against human U251 cells assessed as inhibition of cell growth incubated for 72 hrs by SRB method; assay type: functional, cell-based; details: U-251, 72 h
[25] = Antiproliferative activity against human 95-D cells assessed as inhibition of cell growth incubated for 72 hrs by SRB method; assay type: functional, cell-based
[26] = system: HaCaT; assay: Induction of apoptosis in human HaCaT cells assessed as early apoptotic cells at 9 uM by flow cytometry analysis (reference value: 0.54%); assay type: functional
[27] = system: SMMC-7721; assay: Antiproliferative activity against human SMMC-7721 cells assessed as inhibition of cell growth incubated for 72 hrs by SRB method; assay type: functional, cell-based; details: SMMC-7721, 72 h
[28] = system: HaCaT; assay: Induction of apoptosis in human HaCaT cells transfected with shAKT1 assessed as necrotic cells at 9 uM by flow cytometry analysis (reference value: 3.82%); assay type: functional
[29] = system: 769-P; assay: Antiproliferative activity against human 769-P cells assessed as inhibition of cell growth incubated for 72 hrs by SRB method; assay type: functional, cell-based
[30] = system: HaCaT; assay: Induction of apoptosis in human HaCaT cells transfected with shAKT2 assessed as decrease in cleaved caspase 3 level by Western blot analysis; assay type: functional, cell-based
[31] = system: HaCaT; assay: Induction of apoptosis in human HaCaT cells transfected with shAKT2 assessed as late apoptotic cells at 9 uM by flow cytometry analysis (reference value: 2.90%); assay type: functional
[32] = system: HaCaT; assay: Induction of apoptosis in human HaCaT cells transfected with shAKT2 assessed as early apoptotic cells at 9 uM by flow cytometry analysis (reference value: 0.38%); assay type: functional
[33] = system: HaCaT; assay: Induction of apoptosis in human HaCaT cells assessed as late apoptotic cells at 9 uM by flow cytometry analysis (reference value: 17.13%); assay type: functional
[34] = system: HepG2; assay: Antiproliferative activity against human HepG2 cells assessed as inhibition of cell growth incubated for 72 hrs by SRB method; assay type: functional, cell-based; details: HepG2, 72 h
[35] = system: HaCaT; assay: Antiproliferative activity against human HaCaT cells assessed as inhibition of cell growth incubated for 72 hrs by SRB assay; assay type: cell-based
[36] = system: LNCaP; assay: Antiproliferative activity against human LNCaP cells assessed as inhibition of cell growth incubated for 72 hrs by SRB method; assay type: functional, cell-based
[37] = system: OS-RC-2; assay: Antiproliferative activity against human OS-RC-2 cells assessed as inhibition of cell growth incubated for 72 hrs by SRB method; assay type: functional, cell-based; details: OS-RC-2, 72 h
[38] = system: PC-3; assay: Antiproliferative activity against human PC3 cells assessed as inhibition of cell growth incubated for 72 hrs by SRB method; assay type: functional, cell-based; details: PC-3, 72 h

NC1(C(=O)N[C@@H](CCO)c2ccc(Cl)cc2)CCN(c2nc[nH]c3nccc2-3)CC1 [CAPIVASERTIB]
Activity [1]: 46.52% | Activity [2]: 1.44% | inhibition in vivo at 50 mg/kg [3]: 47.1% | viability at 9 µM [4]: 44.7% | IC50 [5]: 8.23 µM | IC50 [6]: 23.7 µM | IC50 [7]: 23.3 µM | IC50 [8]: 40.4 µM | viability at 9 µM [9]: 44% | Activity [10]: 25.71% | viability at 9 µM [11]: 70.3% | IC50 [12]: 49.6 µM | IC50 [13]: 50.6 µM | inhibition in vivo at 50 mg/kg [14]: 33.9% | Activity [15]: 1.27% | Activity [16]: 7.13% | Activity [17]: 47.84% | Activity [18]: 6.23% | IC50 [19]: 4.48 µM | IC50 [20]: 6.32 µM | viability at 9 µM [21]: 46% | IC50 [22]: 60.5 µM | IC50 [23]: 36.9 µM | IC50 [24]: 14.2 µM | IC50 [25]: 2.32 µM | Activity [26]: 1.34% | IC50 [27]: 84.1 µM | Activity [28]: 5.98% | IC50 [29]: 10.8 µM | Activity [30]: Active | Activity [31]: 3.15% | Activity [32]: 0.79% | Activity [33]: 47.55% | IC50 [34]: 6.7 µM | IC50 [35]: 4.2 µM | IC50 [36]: 0.46 µM | IC50 [37]: 53.4 µM | IC50 [38]: 82.6 µM
